Earlier results as cited in US8343945B2, “Carriers, formulations, methods for formulating unstable active agents for external application and uses thereof” (Foamix Ltd., priority 2007, dated 2013).
Read-outs that look alike come from different tables or passages of the source.

Columns and labels:
[1] = powder for IV administration reconstituted with sterile water for injection; cited from earlier work
[2] = cited from earlier work
[3] = cited from earlier work; remark: listed apart in the source

Doxycycline hyclate
pH of solution [1]: 1.8-3.3 | Solubility in alcohol ([2]; alcohol): slightly soluble | Solubility in solutions of alkali hydroxides and carbonates ([2]; solutions of alkali hydroxides and carbonates): soluble | Solubility in water ([2]; water): soluble | IV solution stable for ([3]; 0.1-1 mg/mL in 0.9% sodium chloride or 5% dextrose, 25° C.): 48 h | IV solution stable for ([3]; 0.1-1 mg/mL in Ringer's, 10% invert sugar, Normosol or Plasma-Lyte in dextrose, room temperature): 12 h | IV solution must be infused within ([3]; 0.1-1 mg/mL in lactated Ringer's injection or 5% dextrose in lactated Ringer's): ≤ 6 h | IV solution stable for ([3]; 2-8° C., protected from direct sunlight and artificial light): 72 h
